Like-named read-outs stand apart in the source and are kept apart here.
Columns and labels:
[1] = test system: influenza A virus A/Jena/5258/2009 (pandemic H1N1; oseltamivir-sensitive); format: cell-based
[2] = format: in vitro ADME, murine; details: 37° C., up to 120 min
Description: (§1) In addition, the substances were tested in human and murine plasma. Therefor, 630 μl of the plasma as mixed with 70 μl of a 2 mM stock solution of each compound in 10 mM phosphate buffer pH 7.4. The incubations were performed in a shaking water bath at 37° C. The incubation was terminated at the times 15, 30, 45, 60, 90 and 120 min by removal of 100 μl sample and addition of 100 μl acetonitrile. The samples were centrifuged (12,000 rpm/10 min) and the supernatant surveyed by HPLC.
(§2) The stability studies were analyzed using the following HPLC method.

in vitro = in vitro ADME; details: human plasma instead of the 4% albumin solution; read-out: Protein binding (converted)
Description: . Therefor, human plasma was used instead of the 4% albumin solution. […]. The values are as expected somewhat higher than the values obtained with the 4% albumin solution and are to be traced back to the presence of other plasma proteins (e.g. α1-acidic glycoprotein) in addition to albumin.
(§3) The plasma protein binding was carried out in three different concentrations (10, 25, and 50 μM). A 4% albumin solution was used as protein solutions. In each case, 50 μl of a 10-fold concentrated substance solution were pipetted in 450 μl of the protein solution. The incubation was carried out for 15 minutes in the shaking water bath at 37° C. Subsequently, the samples were transferred in ultra-filtration units (Vivaspin 500, 10 kDa cut-off) and centrifuged for 15 min at 10.000 rpm. The filtrate was analyzed by HPLC. In addition, a control was run for each concentration, which was not treated with protein and not centrifuged.
. Therefor, instead of the 4% albumin solution, human plasma was used. […]. As anticipated, the values are somewhat higher than the values obtained with the 4% albumin solution and are due to the presence of other plasma proteins (e.g., α1-acidic glycoprotein) besides the albumin.

[3] = format: in vitro ADME, human; details: 37° C., up to 120 min
Description: as §1, §2

[4] = test system: influenza A virus A/Jena/5258/2009; experiment: microbe, parasite or virus in culture; format: cell-based, influenza A virus H1N1; details: Influenza A virus, MDCK, read-out: 50% inhibitory concentration, A/Jena/5258/2009
[5] = format: physicochemical; details: 0.2 mg/ml, pH 7.4 at RT and 4° C. or Aqua bidest at 4° C., 14 days
Description: The storage stability in solution was determined at a concentration of 0.2 mg/ml. Therefor, a compound was dissolved in 50 mM KH2PO4 buffer, pH 7.4 respectively Aqua bidest and stored at RT (pH 7.4) or in a refrigerator at 4° C. (pH 7.4 respectively Aqua bidest) over the test period. The concentration of the active form was determined after 12 h, 1 d, 2 d, 4 d, 7 d and 14 d by HPLC.
Stability Studies for the Amidine Effective Form (3) and Guanidine Effective Form (9) Over 2 Weeks Studies at pH 7.4:
The storage stability in dissolved form was determined at a concentration of 0.2 mg/ml. For this purpose, the compound was dissolved in 50 mM KH2PO4 buffer pH 7.4 or in aqua bidest and stored for the investigation period at RT (pH 7.4) or in a refrigerator at 4° C. (pH 7.4 or aqua bidest). The concentration of the effective form was determined by HPLC after 12 h, 1 d, 2 d, 4 d, 7 d and 14 d.

in vivo = details: rat; for Plasma level of derivative 9 (Conc.): intravenous administration of derivative 9, 10 mg/kg
Description: Sprague Dawley (SD) rats were supplied for habitation 10 days before the start of the experiment, weighing ˜300-350 g and kept in an air conditioned room with a constant temperature of 20° C. and a humidity of 50%. In this room there was a day-night rhythm of twelve hours. The dark phase began daily at 18 o'clock and turned over to the light phase at 6 clock. The rats were kept over the acclimatization period in standard cages of the size 3 (length: 42 cm, width 26 cm, height: 15 cm) and transferred three days before commencement of an experiment into a special experimental room, placed in the identical environmental conditions. They received a maintenance diet (maintenance diet for rats and mice; No. 1320; Altromin) and tap water ad libitum.
A catheter was implanted in the vein as well as in the arteria femoralis of rats receiving an i.v. administration. Rats receiving only oral administration of substances received a […] catheter only.
The catheterized animals were kept after surgery for a day in the experimental room and individually in their experimental cages. The application of the test compounds was carried out on the second day after the operation. On the experimental day, the rats were weighed one hour prior to the test and the arterial catheter was flushed with 300 μl of heparin solution. Subsequently, the i.v. or oral administration of the compounds was carried out.
The oral administrations were performed as a suspension or solution made with gum arabic (10% w/v) by gavage.
The oral administrations were made as suspension or solution with gum arabic (10% w/v) by gavage.
After i.v. administration, plasma samples were taken at 5, 10, 20, 45, 90, 150, 240 and 360 min, respectively after oral administration after 30, 60, 90, 120, 180, 240 and 360 min. To this, in each case 300 μl of whole blood were taken using an insulin syringe and transferred into EDTA-coated Microvettes CB 300 (Sarstedt, Nümbrecht). After each withdrawal it was rinsed with 100 μl 0.9% saline or every 60 min with heparin solution (250 IU/ml). The blood sample was shaken briefly and put until centrifugation (4° C.; 14000 U/min; 10 min) on ice. Subsequently, the samples were frozen at −80° C.
The plasma samples were processed and analyzed by HPLC. Therefor, the plasma samples were thawed at room temperature. In each case, 80 μl methanol (+0.2% TFA) were prepared and subsequently 80 μl of the plasma samples were pipetted into. The samples were shaken for 45 min to precipitate plasma proteins. The samples were frozen at −80° C., thawed and shaken for another 15 min. The samples were centrifuged for 15 min at 13.000 RPM and the supernatant was transferred into HPLC vials. In each case 50 μl were used for the determinations by LC/MS.
The animal studies were evaluated using the following LC/MS method.

[6] = test system: influenza A virus A/342/2009; experiment: microbe, parasite or virus in culture; format: cell-based, influenza A virus H1N1; details: for IC50: read-out: 50% inhibitory concentration, A/342/2009
albumin = albumin (Homo sapiens, UniProt P02768); format: in vitro ADME; details: 4% albumin solution, average of three concentrations (10, 25, 50 μM)
Chain of albumin (P02768 25-609): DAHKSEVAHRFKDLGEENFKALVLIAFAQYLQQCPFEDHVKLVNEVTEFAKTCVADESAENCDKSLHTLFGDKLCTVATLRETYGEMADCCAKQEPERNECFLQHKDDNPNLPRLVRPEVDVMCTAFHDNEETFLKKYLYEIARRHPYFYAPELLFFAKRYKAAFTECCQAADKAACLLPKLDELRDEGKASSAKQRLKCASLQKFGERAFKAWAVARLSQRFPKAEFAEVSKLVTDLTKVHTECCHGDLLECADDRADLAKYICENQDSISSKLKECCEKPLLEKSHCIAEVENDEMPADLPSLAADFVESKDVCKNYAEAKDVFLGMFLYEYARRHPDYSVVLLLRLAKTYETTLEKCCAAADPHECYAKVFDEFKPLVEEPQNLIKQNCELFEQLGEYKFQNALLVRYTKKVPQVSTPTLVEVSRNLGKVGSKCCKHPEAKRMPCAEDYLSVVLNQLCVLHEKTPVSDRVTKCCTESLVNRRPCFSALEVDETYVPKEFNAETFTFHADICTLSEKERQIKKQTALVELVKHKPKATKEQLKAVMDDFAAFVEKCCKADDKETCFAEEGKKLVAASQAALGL
Description: 3. Determination of Protein Binding of the Amidine Effective Form (3) as Well as of Prodrugs Thereof (2, 4) and of the Guanidine Effective Form (9) as Well as of Prodrugs Thereof (6, 10)
as §3

[7] = target: neuraminidase of influenza A virus A/Jena/5258/2009 (H1N1-subtype) (Influenza A virus, UniProt A0A088CA11); experiment: biochemical
[8] = rat, in vivo; cited from earlier work
physchem = format: physicochemical; details: aqueous buffer, thermodynamic from solid
Description: 2. Solubility Assays of the Compounds Tested
Determining the Solubility at Different pH Values:
Therefor, a few mg of the compounds were weighed and mixed with the volume of 50 mM KH2PO4 buffer of respective pH value for a 50 mM solution. […] Subsequently, the undissolved portion was removed by centrifugation at 10.000 rpm for 15 min, and the concentration in the supernatant was determined by HPLC.

[9] = Sprague Dawley, in vivo, iv, 10 mg/kg
[10] = Sprague Dawley, in vivo, po, 50 mg/kg

## CCC(CC)O[C@@H]1C=C(C(=O)O)C[C@H](NC(=N)N)[C@H]1NC(C)=O [Compound 9, (3R,4R,5S)-4-acetamido-5-(N-guanidino)-3-(1-ethylpropoxy)cyclohex-1-en-1-carboxylic acid]
[1]
  90% inhibitory concentration, A/Jena/5258/2009: 0.002 (0.003) μM
  95% inhibitory concentration (values in parentheses), A/Jena/5258/2009: 0.002 (0.003) μM
[2]
  Stability/metabolism by plasma enzymes in murine plasma: not metabolized
In vitro
  fraction unbound: 0.914
[3]
  Stability/metabolism by plasma enzymes in human plasma: not metabolized
[4]
  IC50: 1.1 µM
[5]
  Storage stability in solution: stable
In vivo; [9]
  AUC: 4880 ng·h/mL
  Bioavailability: 100%
  MRT: 0.902 h
  half-life: 2 h
In vivo; Sprague Dawley, in vivo, po
  half-life: ~1.63 h
In vivo; time 5
  Plasma level of derivative 9 (Conc.): 23710 nM
In vivo; time 10
  Plasma level of derivative 9 (Conc.): 18300 nM
In vivo; time 20
  Plasma level of derivative 9 (Conc.): 12670 nM
In vivo; time 45
  Plasma level of derivative 9 (Conc.): 5050 nM
In vivo; time 90
  Plasma level of derivative 9 (Conc.): 1670 nM
In vivo; time 150
  Plasma level of derivative 9 (Conc.): 540 nM
In vivo; time 240
  Plasma level of derivative 9 (Conc.): 230 nM
In vivo; time 360
  Plasma level of derivative 9 (Conc.): 110 nM
[6]; Influenza A virus, MDCK
  IC50: 4.1 µM
albumin
  Protein binding: 0.4 ± 2.8%

## CCOC(=O)C1=C[C@@H](OC(CC)CC)[C@H](NC(C)=O)[C@@H](N)C1 [Oseltamivir, (3R,4R,5S)-4-acetamido-5-amino-3-(1-ethylpropoxy)cyclohex-1-en-1-carboxylic acid ethyl ester, reference compound]
[1]
  90% inhibitory concentration, A/Jena/5258/2009: 0.016 (0.021) μM
  95% inhibitory concentration (values in parentheses), A/Jena/5258/2009: 0.016 (0.021) μM
[7]
  IC50: 0.0001 µM
[4]
  IC50: 13.2 µM
[6]
  50% inhibitory concentration, A/342/2009: resistant
[8]
  plasma half-life period: 0.733 h

## CCC(CC)O[C@@H]1C=C(C(=O)O)C[C@H](NC(C)=N)[C@H]1NC(C)=O [Compound 3]
physchem
  solubility at 30 min: > 50 mM
[1]
  90% inhibitory concentration, A/Jena/5258/2009: 0.001 (0.011) μM
  95% inhibitory concentration (values in parentheses), A/Jena/5258/2009: 0.001 (0.011) μM
[7]
  IC50: 0.0001 µM
In vitro
  fraction unbound: 0.963
[4]
  IC50: 2 µM
In vivo; [9]
  Bioavailability: 100%
  MRT: 0.587 h
  half-life: 0.642 h
In vivo; Sprague Dawley, in vivo, po
  half-life: ~1.87 h
In vivo; [10]
  Bioavailability: 3.0%
  MRT: 1.867 h
  cmax: 0.7 µg/mL
In vivo; Sprague Dawley, in vivo, po, 50 mg/kg, 0 min
  Plasma level of derivative 3 (Conc.) after oral administration of the labelled derivative: 0 nM
In vivo; Sprague Dawley, in vivo, po, 50 mg/kg, 30 min
  Plasma level of derivative 3 (Conc.) after oral administration of the labelled derivative: 1630 nM
In vivo; Sprague Dawley, in vivo, po, 50 mg/kg, 60 min
  Plasma level of derivative 3 (Conc.) after oral administration of the labelled derivative: 1590 nM
In vivo; Sprague Dawley, in vivo, po, 50 mg/kg, 90 min
  Plasma level of derivative 3 (Conc.) after oral administration of the labelled derivative: 1500 nM
In vivo; Sprague Dawley, in vivo, po, 50 mg/kg, 120 min
  Plasma level of derivative 3 (Conc.) after oral administration of the labelled derivative: 1250 nM
In vivo; Sprague Dawley, in vivo, po, 50 mg/kg, 180 min
  Plasma level of derivative 3 (Conc.) after oral administration of the labelled derivative: 610 nM
In vivo; Sprague Dawley, in vivo, po, 50 mg/kg, 240 min
  Plasma level of derivative 3 (Conc.) after oral administration of the labelled derivative: 300 nM
In vivo; Sprague Dawley, in vivo, po, 50 mg/kg, 360 min
  Plasma level of derivative 3 (Conc.) after oral administration of the labelled derivative: 40 nM
In vivo; Iv, 10 mg/kg, active form 3 in plasma
  AUC: 576.8
[6]; Influenza A virus, MDCK
  IC50: 12.2 µM
[6]
  IC50: 12.1 µM
albumin
  Protein binding: 2.2 ± 1.5%
